# Assay results taken from patent US11135244B2, “Stem cell culture media and methods of enhancing cell survival” (Fate Therapeutics, Inc., priority 2013, dated 2021).
# Experiments:
# [1] = system: CXCR4 surface protein within Lin-CD45lowCD34+7AAD- cells; experiment: CXCR4 surface protein on cord blood mononuclear cells after dmPGE2 treatment; format: cell-based; settings: 10 μM dmPGE2 two hours at 37° C., then additional one hour incubation without dmPGE2
# Procedure: Cord blood mononuclear cells (All Cells, Emeryville, Calif.) were thawed in a 37° C. water bath and immediately diluted with 10 mL of pre-warmed IMDM with 10% fetal calf serum and 5 uL of DNase (Life Technologies, Grand Island, N.Y.). The cells were split three ways and centrifuged at 300×g for 10 minutes. The cells were resuspended in STEMSPAN-ACF (Media 1), STEMSPAN-ACF with 5% Dextran-40 (Media 2) or STEMSPAN-ACF with 10% Dextran-40 (Media 3). A subset, 1×10^6 cells, from Media 1 were kept at 4° C. and immediately stained with Lineage Mix-FITC, CXCR4-PE, CD34-APC, and CD45-V450 antibodies from BD Biosciences. All 3 media conditions were split into a vehicle-treated cohort and a 10 μM dmPGE2-treated cohort and incubated at 37° C. for 2 hours. The cells were washed with the same media and incubated at 37° C. for an additional 1 hour. Each cohort was stained with the same antibodies as indicated above. Levels of CXCR4 surface protein within the Lin-CD45^lowCD34+7AAD-cells were analyzed.
# CXCR4 gene expression = CXCR4 gene expression after incubation with dmPGE2; format: cell-based; settings: 10 μM dmPGE2 for two hours at 37° C.
structure (smiles),measurement,setting,value
"CCCCC(C)(C)[C@H](O)/C=C/[C@H]1[C@H](O)CC(=O)[C@@H]1C/C=C\CCCC(=O)O [dmPGE2, 16,16-dimethyl PGE2]",CXCR4 surface protein,[1],increased
same,CXCR4 gene expression,CXCR4 gene expression,increased
